Reference: patent publication US9827212B2, “Compositions and methods for treating asthma and other lung diseases” (THE TRUSTEES OF THE UNIVERSITY OF PENNSYLVANIA, priority 2010, dated 2017)
Where two headings read alike, the source gives them in different places.

Legend:
[1] = system: HDAC; conditions: TSA 0.6 mg/kg i.p.
Method: HDAC activity was measured as described previously (Trivedi et al. 2007). […] 50 μg of total extract was incubated with HDAC assay substrate and incubated at 30° C. for 60 min. After the addition of diluted activator reagent, samples were incubated at room temperature for 15 min, and readings were taken by fluorescent microplate reader at an excitation of 360 nm and emission of 450 nm. A standard curve was performed according to the manufacturer's protocol.

[2] = system: IL-4; assay: IL-4 level in BAL fluid (ELISA); assay type: in vivo, mice
Method: (§1) Mice were sensitized by intraperitoneal (I.P.) injections of 20 μg allergen, a protein extract of the ubiquitous, airborn fungus, Aspergillus fumigatus (AF), (Bayer Pharmaceuticals), in 100 μl PBS solution containing 2 mg of alum (Imject Alum, Pierce) on days 0 and 14 and challenged on days 25, 26, and 27 with 30 μl of Af extract in PBS (25 μg) intranasally (i.n.) (FIG. 1).
(§2) The levels of cytokine secreted into the supernatants of PCLS and bronchoalveolar lavage (BAL) fluid samples were determined by ELISA according to standard protocols as previously described (Banerjee et al. 2008). The cytokine amounts were calculated from the standard curves in each plate. The limits of detection were 5 pg/ml for IL-4 and IL-6 and RANTES standards. Recombinant mouse IL-4 and IL-6 and human RANTES were used as controls.

[3] = system: inflammatory cells in bronchoalveolar lavage (BAL) fluid; assay: BAL cell count and differential; assay type: in vivo, mice
Method: as §1
After functional measurements were completed, lungs were lavaged with 1-ml aliquots of sterile saline through the tracheal cannula. After centrifuging (500 g for 10 min at 4° C.) the cell pellet was resuspended in RPMI. Differential cell counts were made from cytospin preparations as described (Elwood et al. 1991). Cells were identified as macrophages, eosinophils, neutrophils, and lymphocytes by standard morphology and at least 300 cells were counted under ×400 magnification. The percentage and absolute numbers of each cell type were then calculated. The supernatants were harvested and stored at −20° C. for further analysis.

[4] = system: IL-6; assay: IL-6 secretion from human precision cut lung slices (PCLS); assay type: cell-based; conditions: for inhibition of IL-6 secretion from PCLS / inhibition at 0.05 µM: TSA 10 μM or budesonide 50 nM 2 h prior; for inhibition at 0.05 µM: Homo sapiens
Method: (§3) FIG. 11. […] Secretion of IL-6 and RANTES was analyzed as described under materials and methods. Values shown are mean+/− s.d. from three samples.
as §2
(§4) Human lung slice preparation. Human PCLS were prepared as previously described (Cooper et al. 2008). Briefly, healthy whole human lungs were received from the NDRI, and the smallest lobe was dissected out and its main bronchus identified. The lobe was inflated using a 2% (wt/vol) low melting point agarose solution. Once the agarose had set, the lobe was sectioned, and cores of 8-mm diameter were made. The cores that contained a small airway by visual inspection were sliced at a thickness of 250 μm (Krumdieck Tissue Slicer; model no. MD4000; Alabama Research and Development) and collected in wells containing supplemented Ham's F-12 medium. Suitable airways (≦1-mm diameter) on slices were selected on the basis of the following criteria: presence of a full smooth muscle wall (i.e., cut perpendicular to direction of airway); presence of beating cilia to eliminate blood vessels; and unshared muscle walls at airway branch points to eliminate possible counteracting contractile forces. […] Adjacent slices containing contiguous segments of the same airway were paired to act as control to the variable tested and incubated at 37° C. on a rotating platform in a humidified air-CO2 (95-5%) incubator. Sections were placed in fresh media every 2-3 h during the remainder of day 1 and all of day 2 to rid the slice and media of agarose and endogenous substances released that could variably confound the production of inflammatory mediators and/or alter airway tone.
(§5) Three airways from each donor were used per condition; n values indicate the number of donors. Data are expressed as means± SEM. Statistical difference was shown by using a nonpaired t test.

[5] = system: mice sensitized and challenged with Aspergillus fumigatus (AF); assay: Invasive lung function (FlexiVent), methacholine challenge, Aspergillus fumigatus sensitized and challenged mice; assay type: in vivo; conditions: TSA 0.6 mg/kg i.p., dexamethasone 2.5 mg/kg i.p.
Method: as §1
(§6) Lung resistance, compliance, elastance, tissue damping, tissue elastance, and airway resistance were recorded using the FlexiVent system (SCIREQ Scientific Respiratory Equipment Inc). The FlexiVent System Overview is shown in FIG. 1B: FlexiVent is a modular, multi-functional device that performs both mechanical ventilation and detailed measurements of respiratory mechanics in subjects.
(§7) The mice were anesthetized by an I.P. injection of a Ketamine (100 mg/kg) and Xylazine (20 mg/kg) mixture. After anesthesia, a half centimeter incision was made from the rostal to caudal direction; the flap of skin was retracted and the connective tissue was dissected away, and the trachea was exposed. The trachea was then cannulated between the second and third cartilage rings with a blunt-end stub adapter. The cannula was secured with suture. The mice were next connected to the Flexivent system. All spontaneous respirations were stopped with an intramuscular injection of Pancuronium Bromide (3 mg/kg) and the mice were then mechanically ventilated at respiratory rate of 140 beats/per minute with 0.25 ml of tidal volume. The Flexivent system then briefly interrupted the mechanical ventilation to apply a test signal, or perturbation to measure the respiratory mechanics. The respiratory mechanics were then calculated from the data collected while the perturbation was applied. […] At the end of testing the mice were disconnected and processed for multiple organ, blood, and fluid removal. The mice were first exsanguinated through the optical artery. Then bronchoalveolar lavage was performed through the tracheal canula. Finally, the peritoneal and the thoracic cavity were opened, and the lungs were removed for protein and histological processing.

[6] = system: IL-6; assay: IL-6 level in BAL fluid (ELISA); assay type: in vivo, mice
Method: as §1, §2

[7] = system: RANTES; assay: RANTES secretion from human precision cut lung slices (PCLS); assay type: cell-based; conditions: for inhibition of RANTES secretion from PCLS: TSA 10 μM or budesonide 50 nM 2 h prior
Method: as §3, §2, §4, §5

[8] = system: naïve mice challenged with methacholine; assay: Invasive lung function (FlexiVent), methacholine challenge, naïve mice; assay type: in vivo; conditions: dexamethasone 2.5 mg/kg i.p.
Method: as §6, §7

[9] = mice sensitized and challenged with Aspergillus
[10] = unsensitized and unchallenged (naïve) mice
[11] = TNFα (10 ng/mL) and IFNγ (10,000 IU/mL) stimulated

SMILES: CC(/C=C/C(=O)NO)=C\[C@@H](C)C(=O)c1ccc(N(C)C)cc1 [TSA, Trichostatin A]
- HDAC activity in lung tissue [1, 9]: effectively inhibited HDAC activity
- HDAC activity in lung tissue ([1]; naïve mice): effectively inhibited HDAC activity
- IL-4 in BAL [2, 9]: little effect on cytokine secretion
- IL-4 in BAL [2, 10]: did not increase
- BAL eosinophil counts ([3]; Aspergillus challenged mice, TSA 0.6 mg/kg i.p., dexamethasone 2.5 mg/kg i.p.): no effect
- total cell counts in BAL ([3]; Aspergillus sensitized and challenged mice, TSA 0.6 mg/kg i.p., dexamethasone 2.5 mg/kg i.p.): no effect
- percentages of inflammatory cells in the BAL ([3]; after allergen sensitization and challenge): little effect
- total cell counts in BAL ([3]; naïve mice, TSA 0.6 mg/kg i.p., dexamethasone 2.5 mg/kg i.p.): no significant difference in cell counts
- BAL macrophages, neutrophils, or lymphocytes ([3]; untreated mice or Aspergillus sensitized and challenged mice): no significant differences
- inhibition of IL-6 secretion from PCLS [4, 11]: 18.8%+/−6.8%
- inhibition of IL-6 secretion from PCLS ([4]; TNFα (10 ng/mL) stimulated): 30.2%+/−12.5%
- basal IL-6 secretion from PCLS ([4]; unstimulated, TSA 10 μM): little effect on basal IL-6 secretion
- dynamic compliance, maximum inhibition by methacholine [5]: 0.008 mL/cmH2O
- half maximal effective concentration of methacholine (airway resistance) [5]: 20 mg/mL
- half maximal inhibitory concentration of methacholine on dynamic compliance [5]: 5 mg/mL
- IL-6 in BAL [6, 9]: little effect on cytokine secretion
- IL-6 in BAL [6, 10]: did not increase
- inhibition of RANTES secretion from PCLS ([7]; TNFα (10 ng/mL) and IFNγ (10,000 IU/mL) induced): 55.1%+/−7.5%
- inhibition of RANTES secretion from PCLS ([7]; TNFα (10 ng/mL) induced): 50%+/−23%
- basal RANTES secretion from PCLS ([7]; unstimulated, TSA 10 μM): did not induce basal RANTES secretion
- dynamic compliance, maximum inhibition by methacholine ([8]; TSA 0.6 mg/kg i.p.): 0.032 mL/cmH2O
- half maximal inhibitory concentration of methacholine on dynamic compliance ([8]; TSA 0.6 mg/kg i.p.): 2.5 mg/mL

SMILES: CCCC1O[C@@H]2C[C@H]3[C@@H]4CCC5=CC(=O)C=C[C@]5(C)[C@H]4[C@@H](O)C[C@]3(C)[C@]2(C(=O)CO)O1 (some centres unmarked) [budesonide]
- inhibition at 0.05 µM [4, 11]: 52.7%
- inhibition at 0.05 µM ([4]; TNFα (10 ng/mL) stimulated): 44.4%
- inhibition at 0.05 µM ([7]; Homo sapiens): 69%

SMILES: C[C@@H]1C[C@H]2[C@@H]3CCC4=CC(=O)C=C[C@]4(C)[C@@]3(F)[C@@H](O)C[C@]2(C)[C@@]1(O)C(=O)CO [dexamethasone]
- Emax of airway resistance in response to methacholine [5]: 6 cmH2O/mL
- dynamic compliance, maximum inhibition by methacholine [5]: 0.005 mL/cmH2O
- Emax of airway (lung) resistance in response to methacholine ([8]; TSA 0.6 mg/kg i.p. in DMSO): 2.3 cmH2O/mL
- dynamic compliance, maximum inhibition by methacholine ([8]; TSA 0.6 mg/kg i.p.): 0.010 mL/cmH2O
